Patent publication US20120214830A1, “BIOLOGICAL MARKERS PREDICTIVE OF ANTI-CANCER RESPONSE TO INSULIN-LIKE GROWTH FACTOR-1 RECEPTOR KINASE INHIBITORS IN HEPATOCELLULAR CARCINOMA” (OSI Pharmaceuticals, LLC, priority 2011, published 2012)
Like-named read-outs stand apart in the source and are kept apart here.

Columns and labels:
SNU-475 = test: Cell Titer-Glo proliferation assay, 72 h; type: cell-based; details: Homo sapiens, SNU-475 cells
Procedure: (§1) Cell lines: Twenty-one HCC cell lines were purchased from either ATCC (HepG2, Hep3B, PLC/PRF/5, SK-Hepl, SNU-182, SNU-387, SNU-398, SNU-423, SNU-449, SNU-475) or Health Science Research Resources Bank (Japan) (HUH-1, HUH-6, HUH-7, HLE, HLF, JHH-1, JHH-2, JHH-4, JHH-5, JHH-6, JHH-7). All the cell lines were maintained in media as described by the vendors. For growth inhibition assays, cells were plated and allowed to proliferate for 24 hours. After 24 hours, cells had reached approximately 15% confluency, at which time serial dilutions of OSI-906 were added and the cells grown for a further 72 hours. Cell viability was assayed using the Cell Titer-Glo reagent (Promega Corp., Madison, Wis.). Proliferation Assay. Proliferation was assayed using Cell Titer Glo assays (Promega) and was determined 72 hours following dosing with OSI-906. The basis of the assay is a luminescent quantitation of ATP present in a cell culture plate well. In essence, the greater the number of viable cells in the well, the greater the level of ATP present. The assay utilizes a substrate that binds ATP to produce a luminescent signal, which can be read on a luminometer. Unless otherwise noted, the manufacturer's instructions were followed exactly. Briefly, on Day 1, cells were plated in […] of 10% serum-containing growth media at a density of 4000 cells/well in a white polystyrene 96 well assay plate. On day 2, cells were treated with 15 μl of 10× concentration of the IGF-1R inhibitor (e.g. OSI-906) or DMSO alone for a final well volume of 150 μl. After 72 h incubation with the inhibitor, the cells were assayed. Results were calculated as a fraction of the DMSO controlled cells.

SNU-449 = test: Cell Titer-Glo proliferation assay, 72 h; type: cell-based; details: Homo sapiens, SNU-449 cells
Procedure: as §1

SK Hep-1 = test: Cell Titer-Glo proliferation assay, 72 h; type: cell-based; details: Homo sapiens, SK-HEP1, SK Hep-1 cells
Procedure: as §1

SNU-398 = test: Cell Titer-Glo proliferation assay, 72 h; type: cell-based; details: Homo sapiens, SNU-398 cells
Procedure: as §1

JHH-6 = test: Cell Titer-Glo proliferation assay, 72 h; type: cell-based; details: Homo sapiens, JHH-6 cells
Procedure: as §1

Huh-6 = test: Cell Titer-Glo proliferation assay, 72 h; type: cell-based; details: Homo sapiens, Huh-6 cells
Procedure: as §1

Hep G2 = test: Cell Titer-Glo proliferation assay, 72 h; type: cell-based; details: Homo sapiens, HepG2, Hep G2 cells
Procedure: as §1

HLE = test: Cell Titer-Glo proliferation assay, 72 h; type: cell-based; details: Homo sapiens, HLE cells
Procedure: as §1

JHH-5 = test: Cell Titer-Glo proliferation assay, 72 h; type: cell-based; details: Homo sapiens, JHH-5 cells
Procedure: as §1

Huh-1 = test: Cell Titer-Glo proliferation assay, 72 h; type: cell-based; details: Homo sapiens, Huh-1 cells
Procedure: as §1

SNU-387 = test: Cell Titer-Glo proliferation assay, 72 h; type: cell-based; details: Homo sapiens, SNU-387 cells
Procedure: as §1

SNU-423 = test: Cell Titer-Glo proliferation assay, 72 h; type: cell-based; details: Homo sapiens, SNU-423 cells
Procedure: as §1

JHH-4 = test: Cell Titer-Glo proliferation assay, 72 h; type: cell-based; details: Homo sapiens, JHH-4 cells
Procedure: as §1

Huh-7 = test: Cell Titer-Glo proliferation assay, 72 h; type: cell-based; details: Homo sapiens, Huh-7 cells
Procedure: as §1

PLC/PRF/5 = test: Cell Titer-Glo proliferation assay, 72 h; type: cell-based; details: Homo sapiens, PLC/PRF/5 cells
Procedure: as §1

tumor xenograft = details: cited from earlier work

Q: For `C[C@]1(O)C[C@@H](c2nc(-c3ccc4ccc(-c5ccccc5)nc4c3)c3c(N)nccn32)C1` [OSI-906, cis-3-[8-amino-1-(2-phenyl-quinolin-7-yl)-imidazo[1,5-a]pyrazin-3-yl]-1-methyl-cyclobutanol], which inhibition at 5 µM (SNU-475; 5 μM OSI-906, 72 h) is on record?
A: < 40%

Q: What about the EC50 (SNU-475; 72 h OSI-906) of the same molecule?
A: > 10 µM

Q: And the inhibition at 5 µM (SNU-449; 5 μM OSI-906, 72 h)?
A: < 40%

Q: What about the EC50 (SNU-449; 72 h OSI-906) of the same molecule?
A: > 10 µM

Q: What about the inhibition at 5 µM (SK Hep-1; 5 μM OSI-906, 72 h) of the same molecule?
A: < 40%

Q: And the EC50 (SK Hep-1; 72 h OSI-906)?
A: > 10 µM

Q: And the inhibition at 5 µM (SNU-398; 5 μM OSI-906, 72 h)?
A: < 40%

Q: And the EC50 (SNU-398; 72 h OSI-906)?
A: > 10 µM

Q: What about the inhibition at 5 µM (JHH-6; 5 μM OSI-906, 72 h) of the same molecule?
A: < 40%

Q: What about the EC50 (JHH-6; 72 h OSI-906) of the same molecule?
A: > 10 µM

Q: And the inhibition at 5 µM (Huh-6; 5 μM OSI-906, 72 h)?
A: 41%

Q: What about the EC50 (Huh-6; 72 h OSI-906) of the same molecule?
A: 0.25 µM

Q: What about the inhibition at 5 µM (Hep G2; 5 μM OSI-906, 72 h) of the same molecule?
A: 77%

Q: What about the EC50 (Hep G2; 72 h OSI-906) of the same molecule?
A: 0.22 µM

Q: What about the inhibition at 5 µM (HLE; 5 μM OSI-906, 72 h) of the same molecule?
A: < 40%

Q: And the EC50 (HLE; 72 h OSI-906)?
A: > 10 µM

Q: What about the inhibition at 5 µM (JHH-5; 5 μM OSI-906, 72 h) of the same molecule?
A: 80%

Q: What about the EC50 (JHH-5; 72 h OSI-906) of the same molecule?
A: 0.19 µM

Q: And the inhibition at 5 µM (Huh-1; 5 μM OSI-906, 72 h)?
A: 74%

Q: And the EC50 (Huh-1; 72 h OSI-906)?
A: 0.18 µM

Q: What about the inhibition at 5 µM (SNU-387; 5 μM OSI-906, 72 h) of the same molecule?
A: < 40%

Q: And the EC50 (SNU-387; 72 h OSI-906)?
A: > 10 µM

Q: What about the inhibition at 5 µM (SNU-423; 5 μM OSI-906, 72 h) of the same molecule?
A: < 40%

Q: And the EC50 (SNU-423; 72 h OSI-906)?
A: > 10 µM

Q: What about the inhibition at 5 µM (JHH-4; 5 μM OSI-906, 72 h) of the same molecule?
A: < 40%

Q: What about the EC50 (JHH-4; 72 h OSI-906) of the same molecule?
A: > 10 µM

Q: And the inhibition at 5 µM (Huh-7; 5 μM OSI-906, 72 h)?
A: 70%

Q: What about the EC50 (Huh-7; 72 h OSI-906) of the same molecule?
A: 0.37 µM

Q: What about the inhibition at 5 µM (PLC/PRF/5; 5 μM OSI-906, 72 h) of the same molecule?
A: < 40%

Q: And the EC50 (PLC/PRF/5; 72 h OSI-906)?
A: > 10 µM

Q: And the “tumor growth inhibition (TGI)” value (tumor xenograft; xenografts of tumor cells with high sensitivity to OSI-906 in culture in vitro)?
A: high pencentage tumor growth inhibition

Q: What about the “tumor growth inhibition (TGI)” value (tumor xenograft; xenografts of tumor cells with low sensitivity to OSI-906 in culture in vitro) of the same molecule?
A: only a low pencentage tumor growth inhibition
